Here are results for one molecule from ChEMBL document CHEMBL5584309, “Discovery of Novel Mcl-1 Inhibitors with a 3-Substituted-1H-indole-1-yl Moiety Binding to the P1-P3 Pockets to Induce Apoptosis in Acute Myeloid Leukemia Cells” (J Med Chem, 2024).

SMILES strings stand for the structures. Activity calls are given as the source filed them. The calls are words filed in the database; no cut-off is given here. Where only a bound is given, the exact number is not on record here.

In general, AUC(0-t) refers to the area under the concentration-time curve up to a stated or last time point. Low values mean low exposure, high ones high exposure. As usually defined, the AUC(0-inf) is the area under the concentration-time curve extrapolated to infinity. By MRT inf is commonly meant the average time that molecules of a dose stay in the body. One may read the IC50 as the concentration needed to halve the response being measured. A lower IC50 goes with greater potency.

Data set [1] relates to HL-60. Nature of the data set: Induction of apoptosis in human HL-60 cells assessed as increase in Noxa measured after 24 hrs by Western blot analysis. Type of data set: functional, cell-based. The following applies: dose 10-20 µM. Background: A western blot detects proteins with antibodies after separation by electrophoresis.
Data set [2] deals with THP-1. Nature of the data set: Induction of apoptosis in human THP-1 cells assessed as increase in Noxa measured after 24 hrs by Western blot analysis. Format: functional, cell-based. The following applies: dose 10-20 µM.
In data set [3] the test system is THP-1. Put plainly: Induction of apoptosis in Noxa knockdown human THP-1 cells assessed as PARP cleavage at 20 uM measured after 24 hrs by […]. Format: functional, cell-based.
The nature of data set [4]: AUC (0 to t) in Sprague-Dawley rat at 5 mg/kg, iv measured upto 24 hrs by LC-MS/MS analysis. Format: ADME, organism-based. The conditions noted are these: in vivo.
Data set [5] in a line: AUC (0 to infinity) in Sprague-Dawley rat at 5 mg/kg, iv measured upto 24 hrs by LC-MS/MS analysis. The conditions noted are these: in vivo. Format: ADME, organism-based.
The nature of data set [6]: AUC (0 to t) in Sprague-Dawley rat at 20 mg/kg, ip measured upto 24 hrs by LC-MS/MS analysis. The following applies: in vivo. Format: ADME, organism-based.
Data set [7] in a line: AUC (0 to infinity) in Sprague-Dawley rat at 20 mg/kg, ip measured upto 24 hrs by LC-MS/MS analysis. Type of data set: ADME, organism-based. The conditions noted are these: in vivo.
The nature of data set [8]: MRT (0 to infinity) in Sprague-Dawley rat at 20 mg/kg, ip measured upto 24 hrs by LC-MS/MS analysis. Type of data set: ADME, organism-based. The conditions noted are these: in vivo.
The target in data set [9] is Voltage-gated inwardly rectifying potassium channel KCNH2 (Homo sapiens, UniProt Q12809). Put plainly: Inhibition of hERG. Format: toxicity.
Chain of Voltage-gated inwardly rectifying potassium channel KCNH2 (Q12809 whole entry): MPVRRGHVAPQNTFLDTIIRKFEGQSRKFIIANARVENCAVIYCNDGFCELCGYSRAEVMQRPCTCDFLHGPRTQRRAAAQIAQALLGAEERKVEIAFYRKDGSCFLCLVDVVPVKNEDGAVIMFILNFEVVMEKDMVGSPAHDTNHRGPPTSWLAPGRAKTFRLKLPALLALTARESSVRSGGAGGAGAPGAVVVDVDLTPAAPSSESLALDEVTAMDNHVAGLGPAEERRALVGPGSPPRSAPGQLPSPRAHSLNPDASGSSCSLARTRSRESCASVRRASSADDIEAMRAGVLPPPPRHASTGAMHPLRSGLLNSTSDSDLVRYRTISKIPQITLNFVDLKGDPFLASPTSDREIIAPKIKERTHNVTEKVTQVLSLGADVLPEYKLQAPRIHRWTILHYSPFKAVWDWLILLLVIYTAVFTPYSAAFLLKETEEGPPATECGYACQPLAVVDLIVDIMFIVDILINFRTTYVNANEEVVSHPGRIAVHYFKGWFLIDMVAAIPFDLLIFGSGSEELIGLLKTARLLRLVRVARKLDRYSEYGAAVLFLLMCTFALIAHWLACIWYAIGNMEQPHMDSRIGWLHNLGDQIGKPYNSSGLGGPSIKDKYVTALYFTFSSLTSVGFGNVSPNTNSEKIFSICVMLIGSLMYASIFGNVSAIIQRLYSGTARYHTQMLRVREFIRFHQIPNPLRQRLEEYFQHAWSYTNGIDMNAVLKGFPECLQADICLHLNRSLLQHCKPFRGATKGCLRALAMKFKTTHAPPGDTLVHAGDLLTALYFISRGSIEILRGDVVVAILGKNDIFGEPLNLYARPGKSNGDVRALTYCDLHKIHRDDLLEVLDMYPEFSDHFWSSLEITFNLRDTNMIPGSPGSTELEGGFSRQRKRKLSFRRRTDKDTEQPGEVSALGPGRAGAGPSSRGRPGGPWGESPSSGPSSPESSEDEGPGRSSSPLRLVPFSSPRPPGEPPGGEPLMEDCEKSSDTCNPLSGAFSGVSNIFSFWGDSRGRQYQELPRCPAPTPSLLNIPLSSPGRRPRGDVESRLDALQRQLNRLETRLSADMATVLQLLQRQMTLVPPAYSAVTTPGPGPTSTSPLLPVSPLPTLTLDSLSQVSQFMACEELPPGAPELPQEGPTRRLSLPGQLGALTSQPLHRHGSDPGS
Data set [10] can be described thus: Toxicity in NOD SCID mouse assessed as change in heart tissue at 25 mg/kg, ip administered for 7 consecutive days by Hematoxylin-eosin (HE) staining based assay. Format: organism-based. The following applies: in vivo, 168 h, time 7 day.
The nature of data set [11]: Toxicity in NOD SCID mouse assessed as change in liver tissue at 25 mg/kg, ip administered for 7 consecutive days by Hematoxylin-eosin (HE) staining based assay. The following applies: in vivo, 168 h, time 7 day. Type of data set: organism-based.
A short description of data set [12]: Toxicity in NOD SCID mouse assessed as change in lung tissue at 25 mg/kg, ip administered for 7 consecutive days by Hematoxylin-eosin (HE) staining based assay. Format: organism-based. The conditions noted are these: in vivo, 168 h, time 7 day.
Data set [13] in a line: Toxicity in NOD SCID mouse assessed as change in kidney tissue at 25 mg/kg, ip administered for 7 consecutive days by Hematoxylin-eosin (HE) staining based assay. The conditions noted are these: in vivo, 168 h, time 7 day. Type of data set: organism-based.
Data set [14] has as its system HL-60. Put plainly: In vivo antitumor activity against human HL-60 cells xenografted in female NOD SCID mouse assessed as reduction in tumor weight at 80 mg/kg, ip once daily after 15 days of tumor inoculation treated for 12 days. Type of data set: functional, organism-based. The following applies: time 12.0 day. (In general: A xenograft is tissue or cells of one species grown in another, often human tumour cells in immunodeficient mice.)

Data set [15] relates to HL-60. Put plainly: In vivo antitumor activity against human HL-60 cells xenografted in female NOD SCID mouse assessed as tumor growth inhibition at 80 mg/kg, ip once daily after 15 days of tumor inoculation treated for 12 days relative to control. Format: functional. The following applies: HL-60, 288 h, time 12 day, read-out: TGI.
Data set [16] is described as follows: Toxicity in NOD SCID mouse xenografted with human HL-60 cells assessed as change in body weight at 80 mg/kg, ip once daily after 15 days of tumor inoculation treated for 12 days. Type of data set: organism-based. The conditions noted are these: in vivo, 288 h, time 12 day.
The test system of data set [17] is HL-60. Nature of the data set: In vivo antitumor activity against human HL-60 cells xenografted in female NOD SCID mouse assessed as tumor growth inhibition at 40 mg/kg, ip once daily after 15 days of tumor inoculation treated for 12 days relative to control. The conditions noted are these: read-out: TGI. Format: functional.
The test system of data set [18] is THP-1. Nature of the data set: In vivo antitumor activity against human THP-1 cells xenografted in female NOD SCID mouse assessed as tumor growth inhibition at 40 mg/kg, ip once daily after 10 days of tumor inoculation treated for 14 days relative to control. The following applies: THP-1, 336 h, time 14 day, read-out: TGI. Type of data set: functional.
A short description of data set [19]: Toxicity in NOD SCID mouse xenografted with human THP-1 cells assessed as change in lung tissue at 40 to 80 mg/kg, ip once daily after 10 days of tumor inoculation treated for 14 days relative to control. The following applies: in vivo, 336 h, dose 40-80 mg/kg, time 14 day. Type of data set: organism-based.
Data set [20] is described as follows: Toxicity in NOD SCID mouse xenografted with human THP-1 cells assessed as change in spleen tissue at 40 to 80 mg/kg, ip once daily after 10 days of tumor inoculation treated for 14 days relative to control. Format: organism-based. The conditions noted are these: in vivo, 336 h, dose 40-80 mg/kg, time 14 day.
A short description of data set [21]: Toxicity in NOD SCID mouse xenografted with human THP-1 cells assessed as change in kidney tissue at 40 to 80 mg/kg, ip once daily after 10 days of tumor inoculation treated for 14 days relative to control. Format: organism-based. The conditions noted are these: in vivo, 336 h, dose 40-80 mg/kg, time 14 day.

As for `Cc1cc(OCCCc2c(C(=O)O)n(CCN3CCOCC3)c3c(-c4ccccc4Cn4cc(CCN(CCN5CCOCC5)S(=O)(=O)c5ccc(F)cc5)c5ccccc54)cccc23)cc(C)c1Cl`, the Activity entry in the data set with HL-60 [1] was “Dose-Dependent Effect”; in the data set with THP-1 [2], “Dose-Dependent Effect”; in data set [10], “Non-Toxic”; in [11] it was “Non-Toxic”; in data set [12], “Non-Toxic”; in [13], “Non-Toxic”. The Activity result in data set [16], in data set [19], in [20] and in data set [21] was “Non-Toxic” each time. Also, in the data set on THP-1 [3], the outcome was inactive. In addition, the AUC(0-t) at 24 h amounted to 18700 ng·h/mL in data set [4] and 54600 ng·h/mL in data set [6]. For the same molecule, the AUC(0-inf) was 18800 ng·h/mL in [5] and 55800 ng·h/mL in [7]. Also, the mean residence time (MRT inf) in data set [8] was 7.03 h. For the same molecule, the IC50 in data set [9] is > 50 µM. Besides, the result in the data set with HL-60 [14] was Active. Also, in the data set with HL-60 [15], the inhibition in vivo at 80 mg/kg came to 63.7%. Besides, the inhibition in vivo at 40 mg/kg was 46.1% in the data set on HL-60 [17] and 40.2% in the data set on THP-1 [18].
